Experimental data from the supplement of paper PMC10307832.

Columns and labels:
Test in all cases: relative viability (nuclei count vs DMSO), 5 days (fraction); higher = more cells survive
Linifanib + Tozasertib = compound: Cc1ccc(F)c(NC(=O)Nc2ccc(-c3cccc4[nH]nc(N)c34)cc2)c1 [Linifanib] + Cc1cc(Nc2cc(N3CCN(C)CC3)nc(Sc3ccc(NC(=O)C4CC4)cc3)n2)n[nH]1 [Tozasertib] (partner 0.1 µM)
Outline: (§1)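 Lung cancer cell lines, seeded in 1536-well plates, were treated the following day by pin tool with a single drug or with five library-drug doses (not always all listed) in √10 steps on top of a fixed anchor-drug dose. Cells were fixed and nuclei stained in one step after 5 days, and nuclei were counted. Relative viability is the nuclei count for treated wells divided by that for vehicle wells, reported as medians of duplicate plates.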

Linifanib + Bortezomib = compound: Cc1ccc(F)c(NC(=O)Nc2ccc(-c3cccc4[nH]nc(N)c34)cc2)c1 [Linifanib] + CC(C)C[C@H](NC(=O)[C@H](Cc1ccccc1)NC(=O)c1cnccn1)B(O)O [Bortezomib] (partner 0.002 µM)
Outline: as §1

Linifanib + Luminespib = compound: Cc1ccc(F)c(NC(=O)Nc2ccc(-c3cccc4[nH]nc(N)c34)cc2)c1 [Linifanib] + CCNC(=O)c1noc(-c2cc(C(C)C)c(O)cc2O)c1-c1ccc(CN2CCOCC2)cc1 [Luminespib] (partner 0.01 µM)
Outline: as §1

Cell Line	relative viability (Linifanib + Tozasertib; first compound 0.03162 µM)	relative viability (Linifanib + Tozasertib; first compound 0.1 µM)	relative viability (Linifanib + Tozasertib; first compound 0.3162 µM)	relative viability (Linifanib + Bortezomib; first compound 0.03162 µM)	relative viability (Linifanib + Bortezomib; first compound 0.1 µM)	relative viability (Linifanib + Bortezomib; first compound 0.3162 µM)	relative viability (Linifanib + Luminespib; first compound 0.03162 µM)	relative viability (Linifanib + Luminespib; first compound 0.1 µM)	relative viability (Linifanib + Luminespib; first compound 0.3162 µM)
NCI-H661	0.35	0.35	0.36	0.88	0.915	0.645	0.922	0.907	0.926
NCI-H727	0.535	0.659	0.529	0.934	0.922	0.702	0.312	0.292	0.358
NCI-H838	0.248	0.301	0.229	1.24	1.08	0.968	0.373	0.285	0.267
NCI-H1355	0.504	0.547	0.551	1.23	1.26	1.26	0.777	0.672	0.648
NCI-H1395	0.691	0.725	0.729				0.684	0.824	0.622
NCI-H1437	0.375	0.444	0.389	0.644	0.688	0.491	1.12	1.17	1.04
NCI-H1650	0.389	0.475	0.377	0.216	0.212	0.199	0.2	0.188	0.205
NCI-H1651	0.618	0.832	0.695	0.967	0.934	0.895	0.945	0.748	0.797
NCI-H1666	0.626	0.666	0.658	0.892	0.756	0.643	1.03	1.04	0.999
NCI-H1734	0.289	0.288	0.238	1.04	1.15	0.93	0.223	0.216	0.174
NCI-H1755	0.585	0.625	0.553	1.04	0.965	0.916	0.586	0.599	0.447
NCI-H1792				0.93	0.975	0.937	0.331	0.353	0.464
NCI-H1793	0.253	0.467	0.372				0.169	0.173	0.199
NCI-H1915	0.436	0.469	0.399	1.01	0.937	0.98	0.826	0.804	0.679
NCI-H1944	0.249	0.261	0.259				0.67	0.727	0.733
NCI-H1975	0.681	0.901	0.722	0.504	0.376	0.389	0.202	0.139	0.251
NCI-H1993	0.62	0.638	0.57	1.1	1.39	1.2	0.864	0.933	1.03
NCI-H2009	0.718	0.834	0.71	1.25	1.05	0.963	1.03	1.05	0.965

Cell Line	relative viability (Linifanib + Tozasertib; first compound 0.03162 µM)	relative viability (Linifanib + Tozasertib; first compound 0.1 µM)	relative viability (Linifanib + Tozasertib; first compound 0.3162 µM)	relative viability (Linifanib + Bortezomib; first compound 0.03162 µM)	relative viability (Linifanib + Bortezomib; first compound 0.1 µM)	relative viability (Linifanib + Bortezomib; first compound 0.3162 µM)	relative viability (Linifanib + Luminespib; first compound 0.03162 µM)	relative viability (Linifanib + Luminespib; first compound 0.1 µM)	relative viability (Linifanib + Luminespib; first compound 0.3162 µM)
NCI-H2023	0.322	0.398	0.293	1.03	1.28	0.975	0.7	0.925	0.757
NCI-H2085	0.793	0.772	0.843	1.07	1.06	0.971	0.4	0.481	0.384
NCI-H2087	0.295	0.254	0.267	1.06	0.608	0.849	0.175	0.193	0.171
NCI-H2126	0.847	0.998	0.806	1.05	1.1	1.14	0.896	0.967	0.91
NCI-H2170	0.706	0.716	0.712				0.686	0.844	0.741
NCI-H2228	0.206	0.233	0.295	0.815	1.32	0.959	0.15	0.155	0.17
NCI-H2342	0.544	0.492	0.529				0.736	0.766	0.613
NCI-H2347	0.615	0.523	0.591	1.11	1.16	0.778	0.479	0.408	0.348
NCI-H2405	0.785	0.809	0.778	1.05	0.958	0.957	0.626	0.933	0.741
NCI-H3122	0.456	0.437	0.371	1.01	1	0.989	0.0911	0.0897	0.0958
PC-3 [JPC-3]	0.893	0.979	0.811	0.728	0.805	0.77	0.744	0.731	0.579
PC-14	0.499	0.502	0.552	0.924	0.989	0.746	0.201	0.197	0.147
RERF-LC-KJ	0.46	0.531	0.578	1.25	1.22	0.991	1.3	1.28	1.25
SK-LU-1	0.317	0.331	0.323	1.11	1.2	1.19	0.195	0.181	0.227
SK-MES-1	0.882	1.06	0.819				0.79	0.769	0.639
SW 900	0.392	0.614	0.692				0.168	0.172	0.153
SW 1573	0.195	0.193	0.189	0.972	1.04	1.08	0.162	0.26	0.253
UMC-11	0.214	0.201	0.222	0.961	0.731	0.668	0.958	1.1	1.08
